In series [1] the test system is HCV genotype 2A. The experiment in a line: HCV focus-forming assay (FFA). It is filed as cell-based. Particulars: Hepatitis C virus. The protocol:
(§1) Chemical analogs of KIN500 are tested for in vitro antiviral activity against HCV genotype 2A and influenza A virus (A/WSN/33). Viral protein and RNA levels are assessed following drug treatment using the assays described above.

In series [2] the test system is influenza A virus (A/WSN/33). The experiment in a line: microbe, parasite or virus in culture. It is filed as cell-based. The protocol: as §1
For series [3], the system named is ISG expression. Put plainly: ISG expression enhancement. Format: cell-based.
Series [4] deals with Murine Encephalomyocarditis virus (EMCV). Put plainly: EMCV antiviral assay (MTS cell viability). It is filed as cell-based. Conditions: Huh7 cells, EMCV 250 pfu, 18 h post-infection.
A short description of series [5]: in vitro.

This note sets out measurements from patent US8927561B2, “Pyrimidinedione anti-viral compounds” (Kineta, Inc., priority 2010, dated 2015).

As a reminder, the IC50 is the concentration that inhibits the measured activity by half.

On to `COc1ccc(NC(=O)Cn2c(=O)n(Cc3ccco3)c(=O)c3sc4ccccc4c32)c(OC)c1` [KIN500, 2-[3-(furan-2-ylmethyl)-2,4-dioxo-3,4-dihydro[1]benzothieno[3,2-d]pyrimidin-1(2H)-yl]-N-(2,4-methoxyphenyl)acetamide], for which the 50% inhibitory concentration (IC50) in series [1] came to 19.1 µM; in series [2] (Influenza A virus, WSN, read-out: Influenza nucleoprotein (NP) ELISA (IC50)), 4.6 µM. Further, the “Therapeutic index (TI) (CC50/IC50)” value in series [2] (CC50/IC50) amounted to 11. Besides, the “enhancement of ISG expression” value in series [3] was found to be 18 fold. In addition, the Cell viability post-infection in series [4] (5 μM) is reported as approximately 0.75; in series [4] (10 μM), approximately 1.0; in series [4] (20 μM), approximately 1.05. Moreover, in series [5], the CC50 was more than 50 µM.
